Assay results as given in US20250186423A1, “METHODS OF TREATING CANCER AND OTHER CONDITIONS WITH A MU OPIOID RECEPTOR ANTAGONIST” (priority 2022, published 2025).

Assays:
[1] = system: M-001 melanoma cells; assay: Melanoma tumor progression in Zebra fish larvae; type: in vivo, zebrafish; details: Axelopran 10000 nM, 72 hours of growth
[2] = system: Zebra fish larvae; assay: Zebra fish larvae toxicity screen; type: in vivo, zebrafish; details: doses up to 100 μM in incubation water
Protocol: Transgenic Tg(fli1: EGFP)y1 zebrafish embryos were used for these studies. The results of this testing are shown in FIG. 4A and FIG. 4B, which show Zebra fish larvae survival up to 72 hours in the presence of increasing axelopran concentration in the incubation water.
Based on the toxicity screening, for tumor progression analysis, doses up to 10 μM were utilized.
(§1) The toxicity screening period covered the first 72 hours of development. The efficacy evaluation of Axelopran was made using M-001 melanoma cells and matching TILs. Two-day old zebrafish embryos were subcutaneously injected into the perivitelline space with approximately 700 M-001 cells labelled with Dil red fluorescent dye and intravenously injected with TILs with or without pembrolizumab antibody. At the same time, MOR-antagonist test doses were added to the water. Following an additional 72 hours of further development, the fish were assayed for tumor growth (size of original tumor implant) and metastasis disseminated to the distal caudal venous plexus (CVP) three days after implantation.

[3] = system: blood vessels reaching MDA-MB-231 tumor on the CAM; assay: Chicken egg chorioallantoic membrane (CAM) tumor angiogenesis, blood vessel count; type: in vivo; details: 0.1, 0.5, 1.0 mg/kg; absence of exogenous opioids
Protocol: Two independent model systems were used to explore the role of MOR and endogenous opioids on angiogenesis. Human umbilical vein endothelial cells (HUVEC) in culture initiate angiogenesis through tube formation when cultured on an appropriate extracellular matrix. In a living system, the chicken egg chorioallantoic membrane assay (CAM) allows direct visualization of new blood vessel formation.
Furthermore, a chicken egg chorioallantoic membrane assay was conducted to determine blood vessel formation in the presence of increasing MOR antagonist (axelopran) concentrations (0, 0.1, 0.5, 1.0 mg/kg). Docetaxel was used as a control. For the testing CAM membranes were incubated in the presence of the MOR antagonist or docetaxel under the following conditions: Fertilized White Leghorn eggs were incubated at 37.5° C. with 50% relative humidity for 9 days. At that moment (E9), the CAM was dropped down by drilling a small hole through the eggshell into the air sac, and a 1 cm window was cut in the eggshell above the CAM. At least 20 eggs (depending on embryo surviving rate after 9 days of development, there could be more than 20 eggs per group) were grafted for each group. […] The number of blood vessels that reach the tumor and feed the tumor proliferation were counted in triplicate to evaluate tumor angiogenesis. […]

[4] = system: Zebra fish larvae; assay: Zebra fish larvae mortality in combination therapy study; type: in vivo, zebrafish
Protocol: as §1
For study investigating combination therapy, the Zebra fish larvae mortality was also investigated.

[5] = system: MDA-MB-231 tumor cell line; assay: Breast cancer tumor progression in the CAM assay; type: in vivo, chicken
Protocol: The chicken egg chorioallantoic membrane assay (FIG. 3B) allows for the study of tumor progression of injected tumor cells in the presence of active endogenous immune surveillance, but again in the absence of an active gut microbiome.
Breast cancer cell tumor progression was assessed in the chicken egg, chorioallantoic membrane assay. The experimental timing is shown below in FIG. 9. Fertilized chicken eggs were incubated for 9 days. The MDA-MB-231 tumor cell line was cultivated in D-MEM medium supplemented with 10% FBS and 1% penicillin/streptomycin. On day E9, cells were detached with trypsin, washed with complete medium and suspended in graft medium. An inoculum of 1×10^6 cells was added onto the CAM of each egg (E9) and then eggs were randomized into groups. Tumor cells (breast cancer MDA-MB231 cells (10^6)) were then seeded on the upper CAM and further incubated for 3 three days. Test agents were then added to the same site at selected concentrations. Following five days of further incubation the growing tumor was excised, freed of CAM tissue, and weighed.
For this testing, the chicken eggs were treated with: axelopran; pembrolizumab (Pembro); axelopran+pembrolizumab; bevacizumab (Beva); axelopran+bevacizumab; pembrolizumab+bevacizumab; and axelopran+pembrolizumab+bevacizumab. Axelopran was used at dose of 1.0 mg/kg; pembrolizumab was used at a dose of 2.5 mg/kg; and bevacizumab was used at a dose of 4 mg/kg. The results of this testing are shown in FIG. 10A, 10B, 11 and Table 2-2.

[6] = absence of exogenous opioids, breast cancer

`NC(=O)c1cccc(C2CC3CCC(C2)N3CCN(CC2CCCCC2)C(=O)[C@@H](O)CO)c1` (stereo partly drawn) [axelopran, 3-[(1R,3r,5S)-8-(2-{(cyclohexylmethyl)[(2S)-2,3-dihydroxypropanoyl]amino}ethyl)-8-azabicyclo[3.2.1]octan-3-yl]benzamide] was tested, and the “Melanoma tumor progression index (tumor size × metastasis), Mean” value [1] was 2.41, the abnormal pathology [2] was “limited abnormal pathology” and the larvae death [2] was “did not result in larvae death”. For the same compound, the “survival and development of pathological lesions” value ([2]; up to 72 hours) was “no different that the vehicle control”, the “angiogenesis (blood vessel formation, CAM)” value [3] was “inhibit angiogenesis” and the “Zebra fish larvae mortality” value ([4]; axelopran added with TILS and TILS plus pembrolizumab) was “significantly reduced this mortality”. For the same compound, the “Zebra fish larvae mortality” value ([4]; axelopran alone, 72-hour period after exposure at 48 hours post-fertilization) was “no significant mortality”, the “Breast cancer tumor progression index (tumor size × metastasis), Mean” value ([5]; 5 days of growth in the upper CAM, axelopran 1.0 mg/kg, pembrolizumab 2.5 mg/kg, bevacizumab 4 mg/kg) was 0.63 fraction of negative control and the “interaction of axelopran activity with anti-PD-1 treatment” value ([5]; absence of a microbiome, breast cancer) was “additive”. For the same compound, the metastasis [5, 6] was “inhibits metastasis” and the tumor growth [5, 6] was “inhibits tumor growth”.
